{"source": "PubChem BioAssay AID2060341", "about": "(Molecular Pharmacology Branch, DTP, NCI, 2025);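 also: spheroids exposed to agents for 7 days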;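 as to viability, T/C: 100% = DMSO vehicle control viability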", "test_system": "327498-153-R-J2-PDC multicell spheroid viability", "test": "Anticancer human tumor 327498-153-R-J2-PDC patient-derived uterine carcinosarcoma cell line growth inhibition [IpAb]", "conditions": "for IC50: curve of first compound; for viability, T/C: stronger effect = lower value", "summary_of_the_method": "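Multi-cell spheroids of 60% tumour cells, 25% HUVEC and 15% MSC in ultra-low-attachment U-bottom wells, treated with agents combined with ipatasertib or abemaciclib. Half-log ranges top out near clinical Cmax, or 10 microM when Cmax is unknown.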"}
{"smiles": "CCCS(=O)(=O)Nc1ccc(F)c(C(=O)c2c[nH]c3ncc(-c4ccc(Cl)cc4)cc23)c1F", "note": "+ CCN1CCN(Cc2ccc(Nc3ncc(F)c(-c4cc(F)c5nc(C)n(C(C)C)c5c4)n3)nc2)CC1", "values": [{"measurement": "IC50", "setting": "second compound 0.01 µM", "value": "> 10", "unit": "µM"}, {"measurement": "IC50", "setting": "second compound 0.0316 µM", "value": "> 10", "unit": "µM"}, {"measurement": "IC50", "setting": "second compound 0.1 µM", "value": "> 10", "unit": "µM"}, {"measurement": "IC50", "setting": "second compound 0.316 µM", "value": "> 10", "unit": "µM"}, {"measurement": "IC50", "setting": "second compound 1 µM", "value": "> 10", "unit": "µM"}, {"measurement": "viability, T/C", "setting": "second compound 0.01 µM, first compound 0.0316 µM", "value": 107, "unit": "%"}, {"measurement": "viability, T/C", "setting": "second compound 0.01 µM, first compound 0.1 µM", "value": 105, "unit": "%"}, {"measurement": "viability, T/C", "setting": "second compound 0.01 µM, first compound 0.316 µM", "value": 104, "unit": "%"}, {"measurement": "viability, T/C", "setting": "second compound 0.01 µM, first compound 1 µM", "value": 108, "unit": "%"}, {"measurement": "viability, T/C", "setting": "second compound 0.01 µM, first compound 3.16 µM", "value": 98.1, "unit": "%"}, {"measurement": "viability, T/C", "setting": "second compound 0.01 µM, first compound 10 µM", "value": 97.3, "unit": "%"}, {"measurement": "viability, T/C", "setting": "second compound 0.0316 µM, first compound 0.0316 µM", "value": 81, "unit": "%"}, {"measurement": "viability, T/C", "setting": "second compound 0.0316 µM, first compound 0.1 µM", "value": 88.7, "unit": "%"}, {"measurement": "viability, T/C", "setting": "second compound 0.0316 µM, first compound 0.316 µM", "value": 85.6, "unit": "%"}, {"measurement": "viability, T/C", "setting": "second compound 0.0316 µM, first compound 1 µM", "value": 99.5, "unit": "%"}, {"measurement": "viability, T/C", "setting": "second compound 0.0316 µM, first compound 3.16 µM", "value": 94.2, "unit": "%"}, {"measurement": "viability, T/C", "setting": "second compound 0.0316 µM, first compound 10 µM", "value": 86.9, "unit": "%"}, {"measurement": "viability, T/C", "setting": "second compound 0.1 µM, first compound 0.0316 µM", "value": 73.4, "unit": "%"}, {"measurement": "viability, T/C", "setting": "second compound 0.1 µM, first compound 0.1 µM", "value": 77.8, "unit": "%"}, {"measurement": "viability, T/C", "setting": "second compound 0.1 µM, first compound 0.316 µM", "value": 77.2, "unit": "%"}, {"measurement": "viability, T/C", "setting": "second compound 0.1 µM, first compound 1 µM", "value": 78.5, "unit": "%"}, {"measurement": "viability, T/C", "setting": "second compound 0.1 µM, first compound 3.16 µM", "value": 76.6, "unit": "%"}, {"measurement": "viability, T/C", "setting": "second compound 0.1 µM, first compound 10 µM", "value": 70.8, "unit": "%"}, {"measurement": "viability, T/C", "setting": "second compound 0.316 µM, first compound 0.0316 µM", "value": 70.6, "unit": "%"}, {"measurement": "viability, T/C", "setting": "second compound 0.316 µM, first compound 0.1 µM", "value": 70.2, "unit": "%"}, {"measurement": "viability, T/C", "setting": "second compound 0.316 µM, first compound 0.316 µM", "value": 63.8, "unit": "%"}, {"measurement": "viability, T/C", "setting": "second compound 0.316 µM, first compound 1 µM", "value": 76.1, "unit": "%"}, {"measurement": "viability, T/C", "setting": "second compound 0.316 µM, first compound 3.16 µM", "value": 73.1, "unit": "%"}, {"measurement": "viability, T/C", "setting": "second compound 0.316 µM, first compound 10 µM", "value": 70.4, "unit": "%"}, {"measurement": "viability, T/C", "setting": "second compound 1 µM, first compound 0.0316 µM", "value": 58.9, "unit": "%"}, {"measurement": "viability, T/C", "setting": "second compound 1 µM, first compound 0.1 µM", "value": 70.9, "unit": "%"}, {"measurement": "viability, T/C", "setting": "second compound 1 µM, first compound 0.316 µM", "value": 72.8, "unit": "%"}, {"measurement": "viability, T/C", "setting": "second compound 1 µM, first compound 1 µM", "value": 68.3, "unit": "%"}, {"measurement": "viability, T/C", "setting": "second compound 1 µM, first compound 3.16 µM", "value": 68.3, "unit": "%"}, {"measurement": "viability, T/C", "setting": "second compound 1 µM, first compound 10 µM", "value": 63.2, "unit": "%"}]}
